From patent US11814643B2, “Enhanced sleeping beauty transposons, kits and methods of transposition” (Max-Delbrück-Centrum für Molekulare Medizin in der …, priority 2016, dated 2023)

How the values were obtained:
[1] = system: SB transposition; test: Transposition assay with inhibition of cathepsin or HSP90; format: cell-based; details: cathepsin inhibition; E64D 20 μM vs control
Experimental: In order to monitor transcriptional changes activated by the transposase, a genome-wide transcriptional study was performed (HeLa, Affymetrix). […] While HSPA2, a variant of the heat shock protein HSP70, is a member of the stress response, cathepsins are lysosomal proteases and have a vital role in mammalian cellular turnover. […] In addition, by mitigating the cellular stress response induction of the apoptotic signalling is moderated and cell viability improved.
FIG. 6 A. Effect of E64D (an inhibitor of cathepsins, cystein proteases and calpain) on SB transposition. Transposition assay, (20 μM, right side; control, left side). RNAi approach against cathepsin(s) is expected to yield a similar improvement. B. Differential expression of host genes in the presence oft the transposase (HeLa, Affymetrix). […] Cathepsins (CTs) degrade polypeptides and are distinguished by substrate specificities (CTSH, CTSF, CTS2).

[2] = system: HeLa cells; test: Transposition assay of neo-marked mutated transposon constructs; format: cell-based
From the text: FIG. 4 Enhanced binding affinity at the inner DR improves Sleeping Beauty transposition. On the left, schematics of various neo-marked, mutated transposon constructs are depicted. On the right, the respective transpositional activities are shown in comparison to wild type transposon (construct 1), set as 100%. A. Composite DRs were created by changing either the PAI (black box) or the RED (grey box) recognition motifs into a high-affinity binding site (CAST-5) selected by the CASTing experiment (marked by stars at the PAI and stripped at the RED recognition motifs). B. The CAST-5 sequence (SEQ ID NO: 24 or 25) was used to replace only the PAI recognition motif, while the rest of the DR was wild type.
Altering the affinity of the binding sites might challenge the ordered assembly process occurring during transposition of a SB transposon. Thus, a series of transposon versions were constructed where 12DR and/or 14DR motifs were replaced by CASTing selected, high affinity binding sites (FIG. 4A), and the various constructs were subjected to transposition assays. […] Alternatively, the negative effect of CAST-5 on transposition could, at least partially, be accounted to its preferential selection for PAI binding, while compromising its RED function. Indeed, the CAST sequences are predicted to be sub-optimal for RED interaction, including the ability to distinguish between inner vs outer positions (FIG. 2). To distinguish between the two scenarios, we generated CAST-5/wt hybrids, where CAST-5 was replacing PAI only, otherwise kept the DRs wild type (wt). Again, we tested the impact of the hybrid motifs on transposition in various combinations. […]
HeLa cells were grown in DMEM (GIBCO BRL, Germany) supplemented with 10% Fecal Calf Serum Gold (FCS Gold) (PAA, Germany) and 1% antimycotic antibiotic (Invitrogen, Germany). […] After 3 weeks of selection, colonies were stained and counted as described in Ivics et al., Cell 1997. […]

Compound	effect on SB transposition [1]	transpositional activity in comparison to wild type transposon (set as 100%) ([2]; 12DRs replaced by CAST-5 motif) [%]	transpositional activity in comparison to wild type transposon (set as 100%) ([2]; 14DRs replaced by CAST-5 motif) [%]	transpositional activity in comparison to wild type transposon (set as 100%) ([2]; all the four DRs changed to CAST-5) [%]
CCOC(=O)[C@H]1O[C@@H]1C(=O)N[C@@H](CC(C)C)C(=O)NCCC(C)C [E64D]	improvement	–	–	–
CAST-5: high-affinity SB transposase binding site selected by CASTing; 12DR SEQ ID NO: 24, 14DR SEQ ID NO: 25 (chain 1 GTGACGACCCCAAGTGTACATACACGCGCC; chain 2 GTGACGACCCCAAGTGTACATACACGCGCC; listed as DNA, chemistry not fully specified)	–	65	3	2.2
